Assay results published in patent US20210333263A1, “REDOX ACTIVATABLE FLUORESCENT SENSORS” (The Board of Regents of the University of Texas System, priority 2016, published 2021).

B1: OVA^qRAS: Ovalbumin labeled by qRAS (conjugate, UniProt P01012 2-386, looked up)
Ovalbumin: GSIGAASMEFCFDVFKELKVHHANENIFYCPIAIMSALAMVYLGAKDSTRTQINKVVRFDKLPGFGDSIEAQCGTSVNVHSSLRDILNQITKPNDVYSFSLASRLYAEERYPILPEYLQCVKELYRGGLEPINFQTAADQARELINSWVESQTNGIIRNVLQPSSVDSQTAMVLVNAIVFKGLWEKAFKDEDTQAMPFRVTEQESKPVQMMYQIGLFRVASMASEKMKILELPFASGTMSMLVLLPDEVSGLEQLESIINFEKLTEWTSSNVMEERKIKVYLPRMKMEEKYNLTSVLMAMGITDVFSSSANLSGISSAESLKISQAVHAAHAEINEAGREVVGSAEAGVDAASVSEEFRADHPFLFCIKHIATNAVLFFGRCVSP
modifications: qRAS label

Legend:
A549 lung cancer cells = assay: High-throughput quantification of cytosolic delivery of qRAS-labeled protein on a plate reader; format: cell-based; conditions: cells pretreated with 50 μM NEM for 30 min, then JetPEI and OVA^qRAS
Procedure: A549 cancer cells were seeded into 96-well black plate at a density of 10,000 cells per well and incubated for 24 hr. The polymer solution (100 μg/mL) and qRAS-labeled protein (OVA^qRAS or IgG^qRAS, 25 μg/mL) were co-incubated with cells for 40 min at 37° C. The cells were washed twice with PBS (pH 7.4) and cultured in complete culture medium. The fluorescence of TMR and Cy5 were measured on a Tecan fluorescent plate reader at different times. At 24 hr, 5 mM DTT was added to cleave the intracellular disulphide bond and completely release the TMR signal. The excitation and emission settings: TMR: Ex: 545 nm with bandwidth 9 nm, Em: 595 nm with bandwidth 20 nm; Cy5: Ex: 640 nm with bandwidth 9 nm, Em: 690 nm with bandwidth 20 nm.
The activation percentage (%) of OVA^qRAS was calculated using the equation described below:
Activation (%)=(FTMR−F0)/(FTMR,DTT−F0)*100
where FTMR is the fluorescence intensity of TMR at different times, FTMR,DTT is the fluorescence intensity of TMR after the addition of DTT at 24 hr, and F0 is the background of TMR fluorescence.
For the N-ethylmaleimide (NEM) blocking experiments, the same procedures were used except that the cells were pretreated with 50 μM NEM for 30 min prior to the treatment with polymer and OVA^qRAS.

[1] = Fluorescence emission as a function of pH in PBS; format: physicochemical; conditions: pH 4.0 to 8.0, PBS, 6 hours
Procedure: Samples were excited at 390 nm.
FIG. 9 show the normalized fluorescence emission ratio of OVA^qRAS in PBS at different pH. OVA^qRAS (0.5 mg/mL) was incubated in PBS with different pH for 6 hours. The fluorescence emission spectra of TMR and Cy5 were recorded using a Hitachi fluorometer with excitation wavelength at 550 nm and 640 nm, respectively.

Row | Molecule | fluorescence signals of OVA^qRAS after NEM pretreatment (A549 lung cancer cells) | TMR/Cy5 ratio across pH range [1]
1 | CCN1C(=O)C=CC1=O [N-ethylmaleimide] | significant suppression of fluorescence signals | 
2 | B1 |  | remained constant
